Data as given in patent EP1345943B1, “INHIBITORS OF PAPILLOMA VIRUS” (BOEHRINGER INGELHEIM (CANADA) LTD., priority 2000, dated 2002).

The compounds below were run against E1-E2-DNA complex (Human papillomavirus 11, UniProt P04015) (assay: E2-dependent E1 DNA binding assay (E1-E2 DNA assay)). Details: E1-E2 DNA assay of Example 11, HPV-11.
Sequence of E1-E2-DNA complex (P04015 whole entry, one chain of several): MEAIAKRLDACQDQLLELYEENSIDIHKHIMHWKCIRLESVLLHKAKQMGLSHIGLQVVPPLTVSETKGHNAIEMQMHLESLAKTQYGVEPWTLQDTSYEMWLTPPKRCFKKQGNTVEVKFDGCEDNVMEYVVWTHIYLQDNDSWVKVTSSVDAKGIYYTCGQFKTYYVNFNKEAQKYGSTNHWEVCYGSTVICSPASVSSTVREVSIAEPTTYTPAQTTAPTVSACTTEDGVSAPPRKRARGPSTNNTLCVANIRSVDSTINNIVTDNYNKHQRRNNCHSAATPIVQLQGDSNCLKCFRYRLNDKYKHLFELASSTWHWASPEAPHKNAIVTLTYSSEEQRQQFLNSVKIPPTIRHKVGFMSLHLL
Protocol: This particular assay determines the ability of a test compound to inhibit the activity (IC50) of HPV-11 DNA replication. More specifically, in the assay described herein, the inhibitory activity of the test compound is evaluated based on its ability to interfere with the E1-E2-DNA origin of replication interaction, thereby inhibiting initiation of viral DNA replication.
This assay was modeled on a similar assay for SV40 T Antigen described by McKay (J. Mol. Biol., 1981,145:471). A 400bp radiolabeled DNA probe, containing the -HPV-11 origin of replication (Chiang et al.., 1992, Proc. Natl.-Acad. Sci. USA 89:5799) was produced by pcr, using plasmid pBluescript™ SK encoding the origin (nucleotides 7886-61 of the HPV-11 genome in unique BAMH1 site) as template and primers flanking the origin. Radiolabel was incorporated as [33p]dCTP. Binding assay buffer consisted of: 20 mM Tris pH 7.6, 100 mM NaCI, 1 mM DTT, 1 mM EDTA.
Other reagents used were protein A-SPA beads (type II, Amersham) and K72 rabbit polyclonal antiserum, raised against a peptide corresponding to the C-terminal 14 amino acids of HPV-11 E1. Following the protocol from Amersham, one bottle of beads was mixed with 25 mL of binding assay buffer. For the assay, a saturating amount of K72 antiserum was added to the beads and the mixture was incubated for 1 h, washed with one volume of binding assay buffer, and then resuspended in the same volume of fresh binding assay buffer. Binding reactions contained 8 ng of E2, approximately 100-200 ng of purified E1, and 0.4 ng of radiolabeled probe in a total of 80 µL of binding assay buffer. After 1 h at room temperature, 25 µL of K72 antibody-SPA bead suspension was added to with the binding reaction and mixed. After an additional hour of incubation at room temperature, the reactions were centrifuged briefly to pellet the beads and the extent of complex formation was determined by scintillation counting on a Packard TopCount™. Typically, the signal for reactions containing E1 and E2 was 20-30 fold higher than the background observed when either E1, E2, or both was omitted.
In the case of Cc1cc2c(cc1F)C(=O)C1(OC(c3ccc(Br)c(Br)c3)C(C(=O)Nc3ccc(N4CCOCC4)cc3)C1C(=O)O)C2=O (single isomer, unassigned) [Compound A1015], the IC50 is reported as under 0.5 µM.
In the case of Cc1cc2c(cc1F)C(=O)C1(OC(c3ccc(Br)c(Br)c3)C(C(=O)Nc3ccc(N4CCOCC4)cc3)C1C(=O)O)C2=O (single isomer, unassigned) [Compound A1016], the IC50 is reported as 0.5 to 5 µM.
Cc1ccc2c(c1)C(=O)C13OC(c4ccc(Br)c(Br)c4)C(C(=O)Nc4ccc(N5CCOCC5)cc4)C1C(=O)OC23O (single isomer, unassigned) [Compound B1002] was tested, and the IC50 was under 0.5 µM.
For Cc1ccc2c(c1)C1(O)OC(=O)C3C(C(=O)Nc4ccc(N5CCOCC5)cc4)C(c4ccc(Br)c(Br)c4)OC31C2=O (single isomer, unassigned) [Compound B1003], the IC50 was under 0.5 µM.
Compound Cc1ccc2c(c1)C(=O)C13OC(c4ccc(Br)c(Br)c4)C(C(=O)NCCc4ccccc4Cl)C1C(=O)OC23O (single isomer, unassigned) [Compound B1004] has an IC50 of 5 to 50 µM.
For Cc1ccc2c(c1)C1(O)OC(=O)C3C(C(=O)NCCc4ccccc4Cl)C(c4ccc(Br)c(Br)c4)OC31C2=O (single isomer, unassigned) [Compound B1005], the IC50 was 5 to 50 µM.
With Cc1ccc2c(c1)C(=O)C13OC(c4ccc(Br)c(Br)c4)C(C(=O)NCCc4ccccc4Cl)C1C(=O)OC23O (single isomer, unassigned) [Compound B1006] the IC50 was 0.5 to 5 µM.
Cc1ccc2c(c1)C1(O)OC(=O)C3C(C(=O)NCCc4ccccc4Cl)C(c4ccc(Br)c(Br)c4)OC31C2=O (single isomer, unassigned) [Compound B1007] showed an IC50 of under 0.5 µM.
Work on Cc1cc2c(cc1F)C(=O)C13OC(c4ccc(Br)c(Br)c4)C(C(=O)Nc4ccc(N5CCOCC5)cc4)C1C(=O)OC23O (single isomer, unassigned) [Compound B1008] yielded an IC50 of under 0.5 µM.
CC(=O)c1ccc(NC(=O)C2C(c3ccc(Cl)c(Cl)c3)OC34C(=O)c5cc(C)sc5C3(O)OC(=O)C24)cc1 (single isomer, unassigned) [Compound D1001] gave an IC50 of under 0.5 µM.
Cc1cc2c(s1)C1(O)OC(=O)C3C(C(=O)Nc4ccc(N5CCOCC5)cc4)C(c4ccc(Br)c(Br)c4)OC31C2=O (single isomer, unassigned) [Compound D1002] was tested, and the IC50 was under 0.5 µM.
Cc1cc2c(s1)C1(O)OC(=O)C3C(C(=O)Nc4ccc(CNC(=O)OC(C)(C)C)cc4)C(c4ccc(Br)c(Br)c4)OC31C2=O (single isomer, unassigned) [Compound D1003] was tested, and the IC50 was under 0.5 µM.
Compound CC(=O)NCc1ccc(NC(=O)C2C(c3ccc(Br)c(Br)c3)OC34C(=O)c5cc(C)sc5C3(O)OC(=O)C24)cc1 (single isomer, unassigned) [Compound D1004] has an IC50 of under 0.5 µM.
O=C(Nc1ccc(N2CCOCC2)cc1)C1C(c2ccc(Br)c(Br)c2)OC2(C(=O)c3ccccc3C2=O)C1C(=O)O (centres unmarked) [10,001] showed an IC50 of 0.5 to 5 µM.
In the case of O=C(Nc1ccc2c(c1)OCO2)C1C(c2ccc(Cl)cc2)OC2(C(=O)c3ccccc3C2=O)C1C(=O)O (centres unmarked) [Compound 1001], the IC50 is reported as 5 to 50 µM.
O=C(Nc1ccc2c(c1)OCO2)C1C(c2ccc(Cl)c(Cl)c2)OC2(C(=O)c3ccccc3C2=O)C1C(=O)O (centres unmarked) [Compound 1002] was tested, and the IC50 was under 0.5 µM.
O=C(Nc1ccc(F)cc1)C1C(c2ccc(Cl)cc2)OC2(C(=O)c3ccccc3C2=O)C1C(=O)O (centres unmarked) [Compound 1003] was tested, and the IC50 was 5 to 50 µM.
Compound COc1ccc(NC(=O)C2C(c3ccc(Cl)cc3)OC3(C(=O)c4ccccc4C3=O)C2C(=O)O)cc1OC (centres unmarked) [Compound 1004] has an IC50 of 5 to 50 µM.
With CC(=O)c1ccc(NC(=O)C2C(c3ccc(Cl)cc3)OC3(C(=O)c4ccccc4C3=O)C2C(=O)O)cc1 (centres unmarked) [Compound 1005] the IC50 was 5 to 50 µM.
With O=C(Nc1cccc(Cl)c1)C1C(c2ccc(Cl)cc2)OC2(C(=O)c3ccccc3C2=O)C1C(=O)O (centres unmarked) [Compound 1006] the IC50 was 5 to 50 µM.
Cc1ccc(NC(=O)C2C(c3ccc(Cl)cc3)OC3(C(=O)c4ccccc4C3=O)C2C(=O)O)cc1 (centres unmarked) [Compound 1007] showed an IC50 of 5 to 50 µM.
CC(C)c1ccc(C2OC3(C(=O)c4ccccc4C3=O)C(C(=O)O)C2C(=O)Nc2ccc3c(c2)OCO3)cc1 (centres unmarked) [Compound 1008] showed an IC50 of 5 to 50 µM.
For O=C(Nc1ccc(F)cc1F)C1C(c2ccc(Cl)cc2)OC2(C(=O)c3ccccc3C2=O)C1C(=O)O (centres unmarked) [Compound 1009], the IC50 was 5 to 50 µM.
O=C(Nc1ccc(Cl)cc1)C1C(c2ccc(Cl)cc2)OC2(C(=O)c3ccccc3C2=O)C1C(=O)O (centres unmarked) [Compound 1010] gave an IC50 of 5 to 50 µM.
For O=C(Nc1ccccc1)C1C(c2ccc(Cl)cc2)OC2(C(=O)c3ccccc3C2=O)C1C(=O)O (centres unmarked) [Compound 1011], the IC50 was 5 to 50 µM.
Compound Cc1cccc(NC(=O)C2C(c3ccc(Cl)cc3)OC3(C(=O)c4ccccc4C3=O)C2C(=O)O)c1 (centres unmarked) [Compound 1012] has an IC50 of 5 to 50 µM.
O=C(Nc1ccc2c(c1)CCC2)C1C(c2ccc(Cl)cc2)OC2(C(=O)c3ccccc3C2=O)C1C(=O)O (centres unmarked) [Compound 1013] showed an IC50 of 5 to 50 µM.
O=C(Nc1ccc(C(F)(F)F)cc1)C1C(c2ccc(Cl)cc2)OC2(C(=O)c3ccccc3C2=O)C1C(=O)O (centres unmarked) [Compound 1014] gave an IC50 of 5 to 50 µM.
Compound O=C(Nc1ccc2c(c1)OCO2)C1C(c2cccc(Cl)c2)OC2(C(=O)c3ccccc3C2=O)C1C(=O)O (centres unmarked) [Compound 1015] has an IC50 of 0.5 to 5 µM.
Compound O=C(Nc1ccc2c(c1)OCO2)C1C(c2ccc(C(F)(F)F)cc2)OC2(C(=O)c3ccccc3C2=O)C1C(=O)O (centres unmarked) [Compound 1016] has an IC50 of 5 to 50 µM.
Compound COC(=O)C1C(C(=O)Nc2ccc3c(c2)OCO3)C(c2ccc(Cl)cc2)OC12C(=O)c1ccccc1C2=O (centres unmarked) [Compound 1017] has an IC50 of 5 to 50 µM.
Work on Cc1cccc(C2OC3(C(=O)c4ccccc4C3=O)C(C(=O)O)C2C(=O)Nc2ccc3c(c2)OCO3)c1 (centres unmarked) [Compound 1018] yielded an IC50 of 5 to 50 µM.
O=C(Nc1ccc2c(c1)OCO2)C1C(c2ccc(Cl)cc2)OC2(C(=O)c3cccc(F)c3C2=O)C1C(=O)O (centres unmarked) [Compound 1019] gave an IC50 of 5 to 50 µM.
O=C(Nc1ccc2c(c1)OCO2)C1C(c2cc(Cl)cc(Cl)c2)OC2(C(=O)c3ccccc3C2=O)C1C(=O)O (centres unmarked) [Compound 1020] showed an IC50 of 5 to 50 µM.
For CC(=O)c1ccc(NC(=O)C2C(c3ccc(Cl)c(Cl)c3)OC3(C(=O)c4ccccc4C3=O)C2C(=O)O)cc1 (centres unmarked) [Compound 1021], the IC50 was under 0.5 µM.
Work on Cc1ccc(C2OC3(C(=O)c4ccccc4C3=O)C(C(=O)O)C2C(=O)Nc2ccc3c(c2)OCO3)cc1C (centres unmarked) [Compound 1024] yielded an IC50 of 0.5 to 5 µM.
CC(C)(C)c1ccc(NC(=O)C2C(c3ccc(Cl)c(Cl)c3)OC3(C(=O)c4ccccc4C3=O)C2C(=O)O)cc1 (centres unmarked) [Compound 1025] was tested, and the IC50 was 0.5 to 5 µM.
Cc1ccc2nc(-c3ccc(NC(=O)C4C(c5ccc(Cl)c(Cl)c5)OC5(C(=O)c6ccccc6C5=O)C4C(=O)O)cc3)sc2c1 (centres unmarked) [Compound 1028] was tested, and the IC50 was under 0.5 µM.
In the case of O=C(Nc1ccc2c(c1)OCO2)C1C(c2ccc(Cl)c(F)c2)OC2(C(=O)c3ccccc3C2=O)C1C(=O)O (centres unmarked) [Compound 1029], the IC50 is reported as 0.5 to 5 µM.
Work on O=C(Nc1ccc2c(c1)OCO2)C1C(c2ccc(F)c(Cl)c2)OC2(C(=O)c3ccccc3C2=O)C1C(=O)O (centres unmarked) [Compound 1030] yielded an IC50 of 0.5 to 5 µM.
For O=C(Nc1ccc2c(c1)OCO2)C1C(c2cccc(C(F)(F)F)c2)OC2(C(=O)c3ccccc3C2=O)C1C(=O)O (centres unmarked) [Compound 1031], the IC50 was 0.5 to 5 µM.
CC(=O)c1ccc(NC(=O)C2C(c3cccc(Cl)c3)OC3(C(=O)c4ccccc4C3=O)C2C(=O)O)cc1 (centres unmarked) [Compound 1032] showed an IC50 of 0.5 to 5 µM.
Compound CSc1ccc(NC(=O)C2C(c3ccc(Cl)c(Cl)c3)OC3(C(=O)c4ccccc4C3=O)C2C(=O)O)cc1 (centres unmarked) [Compound 1033] has an IC50 of 0.5 to 5 µM.
In the case of O=C(Nc1ccc(N2CCOCC2)cc1)C1C(c2ccc(Cl)c(Cl)c2)OC2(C(=O)c3ccccc3C2=O)C1C(=O)O (centres unmarked) [Compound 1034], the IC50 is reported as under 0.5 µM.
For CC(=O)Nc1ccc(NC(=O)C2C(c3ccc(Cl)c(Cl)c3)OC3(C(=O)c4ccccc4C3=O)C2C(=O)O)cc1 (centres unmarked) [Compound 1035], the IC50 was under 0.5 µM.
Compound CC(C)NC(=O)C1C(c2ccc(Cl)c(Cl)c2)OC2(C(=O)c3ccccc3C2=O)C1C(=O)O (centres unmarked) [Compound 1036] has an IC50 of 0.5 to 5 µM.
For Cc1ccc2c(c1)C(=O)C1(OC(c3ccc(Cl)c(Cl)c3)C(C(=O)Nc3ccc4c(c3)OCO4)C1C(=O)O)C2=O (centres unmarked) [Compound 1037], the IC50 was 0.5 to 5 µM.
In the case of O=C(Nc1ccc2c(c1)OCO2)C1C(c2ccc(I)cc2)OC2(C(=O)c3ccccc3C2=O)C1C(=O)O (centres unmarked) [Compound 1039], the IC50 is reported as 0.5 to 5 µM.
With O=C(Nc1cc2ccccc2cn1)C1C(c2ccc(Cl)c(Cl)c2)OC2(C(=O)c3ccccc3C2=O)C1C(=O)O (centres unmarked) [Compound 1040] the IC50 was 0.5 to 5 µM.
Cc1cccc2c1C(=O)C1(OC(c3ccc(Cl)c(Cl)c3)C(C(=O)Nc3ccc4c(c3)OCO4)C1C(=O)O)C2=O (centres unmarked) [Compound 1041] showed an IC50 of 0.5 to 5 µM.
Work on Cc1cccc2c1C(=O)C1(OC(c3ccc(Cl)c(Cl)c3)C(C(=O)Nc3ccc4c(c3)OCO4)C1C(=O)O)C2=O (centres unmarked) [Compound 1042] yielded an IC50 of 0.5 to 5 µM.
For O=C(NN1CCOCC1)C1C(c2ccc(Cl)c(Cl)c2)OC2(C(=O)c3ccccc3C2=O)C1C(=O)O (centres unmarked) [Compound 1043], the IC50 was 0.5 to 5 µM.
For CC(=O)c1ccc(NC(=O)C2C(c3cccc(Cl)c3)OC3(C(=O)c4ccccc4C3=O)C2C(=O)O)cc1 (centres unmarked) [Compound 1044], the IC50 was 5 to 50 µM.
